Experimental data from ChEMBL document CHEMBL1817643, “Biochemical characterization of a novel type-II VEGFR2 kinase inhibitor: comparison of binding to non-phosphorylated and phosphorylated VEGFR2” (Bioorg Med Chem, 2011).

Experiments:
[1] = target: T1, Vascular endothelial growth factor receptor 2 (Homo sapiens, UniProt P35968); experiment: Inhibition of human N-terminal His-tagged non-phosphorylated VEGFR2 in presence of ATP measured without preincubation by AlphaScreen analysis
[2] = target: T1, Vascular endothelial growth factor receptor 2; experiment: Inhibition of human N-terminal His-tagged non-phosphorylated VEGFR2 preincubated for 120 mins in presence of ATP by AlphaScreen analysis
[3] = target: T1, Vascular endothelial growth factor receptor 2; experiment: Inhibition of human N-terminal His-tagged phosphorylated VEGFR2 in presence of ATP measured without preincubation by AlphaScreen analysis
[4] = target: T1, Vascular endothelial growth factor receptor 2; experiment: Inhibition of human N-terminal His-tagged phosphorylated VEGFR2 preincubated for 120 mins in presence of ATP by AlphaScreen analysis
[5] = target: T1, Vascular endothelial growth factor receptor 2; experiment: Inhibition of human N-terminal His-tagged non-phosphorylated VEGFR2 after 10 mins by Global fit analysis
[6] = target: T1, Vascular endothelial growth factor receptor 2; experiment: Inhibition of human N-terminal His-tagged non-phosphorylated VEGFR2 after 60 mins by activity based 100 fold dilution assay
[7] = target: T1, Vascular endothelial growth factor receptor 2; experiment: Inhibition of human N-terminal His-tagged non-phosphorylated VEGFR2 after 60 mins by ligand displacement based enzyme-inhibitor dilution assay
[8] = target: T1, Vascular endothelial growth factor receptor 2; experiment: Binding affinity to human N-terminal His-tagged non-phosphorylated VEGFR2 by surface plasmon resonance analysis
[9] = target: T1, Vascular endothelial growth factor receptor 2
Description: Inhibition of human N-terminal His-tagged non-phosphorylated VEGFR2 assessed as dissociation half life

[10] = target: T1, Vascular endothelial growth factor receptor 2; remark: listed apart in the source
[11] = target: T1, Vascular endothelial growth factor receptor 2; remark: listed apart in the source
Description: Inhibition of human N-terminal His-tagged non-phosphorylated VEGFR2 assessed as dissociation half life after 60 mins by ligand displacement based enzyme-inhibitor dilution assay

[12] = target: T1, Vascular endothelial growth factor receptor 2; remark: listed apart in the source
[13] = target: T1, Vascular endothelial growth factor receptor 2; remark: listed apart in the source
Description: Inhibition of human N-terminal His-tagged phosphorylated VEGFR2 assessed as dissociation half life after 60 mins by ligand displacement based enzyme-inhibitor dilution assay

[14] = target: T1, Vascular endothelial growth factor receptor 2; remark: listed apart in the source
Description: Binding affinity to human N-terminal His-tagged non-phosphorylated VEGFR2 assessed as association constant by surface plasmon resonance analysis

[15] = target: T1, Vascular endothelial growth factor receptor 2; experiment: Binding affinity to human N-terminal His-tagged non-phosphorylated VEGFR2 assessed as dissociation rate constant by surface plasmon resonance analysis

T1 sequence (P35968 whole entry): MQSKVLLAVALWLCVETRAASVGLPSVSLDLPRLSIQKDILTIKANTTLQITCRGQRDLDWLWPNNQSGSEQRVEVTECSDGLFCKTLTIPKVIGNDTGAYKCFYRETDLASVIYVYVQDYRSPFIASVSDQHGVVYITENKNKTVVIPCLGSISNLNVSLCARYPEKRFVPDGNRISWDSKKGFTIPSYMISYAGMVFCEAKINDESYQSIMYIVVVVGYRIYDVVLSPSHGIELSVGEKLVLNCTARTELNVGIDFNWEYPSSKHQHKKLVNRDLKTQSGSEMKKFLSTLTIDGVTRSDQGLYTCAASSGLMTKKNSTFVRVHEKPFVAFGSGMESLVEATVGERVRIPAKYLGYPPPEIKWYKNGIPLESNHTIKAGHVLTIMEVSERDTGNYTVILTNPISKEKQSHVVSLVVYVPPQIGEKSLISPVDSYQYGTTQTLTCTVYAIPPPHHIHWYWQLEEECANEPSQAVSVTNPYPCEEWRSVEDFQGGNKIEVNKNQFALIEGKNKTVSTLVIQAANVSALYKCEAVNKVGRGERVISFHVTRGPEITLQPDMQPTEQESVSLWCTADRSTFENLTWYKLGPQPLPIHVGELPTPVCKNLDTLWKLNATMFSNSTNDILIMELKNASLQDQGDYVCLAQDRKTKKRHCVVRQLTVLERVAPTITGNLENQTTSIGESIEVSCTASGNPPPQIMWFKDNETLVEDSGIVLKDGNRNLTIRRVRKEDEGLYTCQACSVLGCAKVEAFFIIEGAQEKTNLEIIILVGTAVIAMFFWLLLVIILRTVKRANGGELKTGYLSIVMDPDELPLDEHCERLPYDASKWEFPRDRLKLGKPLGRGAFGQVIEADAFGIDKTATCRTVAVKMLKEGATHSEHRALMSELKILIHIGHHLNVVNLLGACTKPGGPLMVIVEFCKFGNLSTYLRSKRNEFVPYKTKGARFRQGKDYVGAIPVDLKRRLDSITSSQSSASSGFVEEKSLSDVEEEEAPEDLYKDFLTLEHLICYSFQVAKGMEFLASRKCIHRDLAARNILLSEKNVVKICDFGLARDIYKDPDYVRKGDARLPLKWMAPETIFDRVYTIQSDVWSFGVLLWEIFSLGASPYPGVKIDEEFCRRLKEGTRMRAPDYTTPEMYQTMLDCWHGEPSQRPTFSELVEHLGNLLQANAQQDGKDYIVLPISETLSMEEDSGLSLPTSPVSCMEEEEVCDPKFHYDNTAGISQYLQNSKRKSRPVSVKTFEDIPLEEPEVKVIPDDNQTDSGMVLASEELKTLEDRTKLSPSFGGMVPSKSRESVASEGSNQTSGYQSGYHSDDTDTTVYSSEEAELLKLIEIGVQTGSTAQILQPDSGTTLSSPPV

Row | IC50 [1] | IC50 [2] | IC50 [3] | Ki [3] | IC50 [4] | Ki [5] | Ki [6] | Ki [7] | Kd [8] | T1/2 [9] | Ka [14] | koff [15] | Compound | T1/2 [10] | T1/2 [11] | T1/2 [12] | T1/2 [13]
1 | 4.7 nM | 0.033 nM | 46 nM | 23 nM | 14 nM | 4.6 nM | 0.024 nM | 0.044 nM | 19 nM | 1.3 min | 1.6 ×10⁵ /M/s | 0.0031 s⁻¹ | Cn1ccc2ncnc(Oc3ccc(NC(=O)Nc4cccc(C(F)(F)F)c4)c(F)c3)c21 | 260 min | 130 min | < 5 min | < 5 min
2 |  |  |  |  |  |  |  |  |  |  |  |  | CN[C@@H]1C[C@H]2O[C@@](C)([C@@H]1OC)n1c3ccccc3c3c4c(c5c6ccccc6n2c5c31)C(=O)NC4 | < 5 min | < 5 min | < 5 min | < 5 min
